Reference: patent US12599600B2, “Compositions and methods for preventing and treating headache through enhancing 2-arachydonyl glyerol activity” (Arizona Board of Regents on Behalf of the University of …, priority 2020, dated 2026)

Columns and labels:
[1] = test system: cortical KCl induced periorbital allodynia in female rats; test: Cortical KCl induced periorbital (facial) allodynia in female rats; assay type: in vivo, rat; conditions: for reversal of periorbital allodynia / prevention of periorbital allodynia: female rats
Protocol: FIG. 2A-D: Cortical KCl, but not dural KCl, induces periorbital allodynia in female rats and activates cFOS. A. Cortical KCl (0.5 μL, 1M) induces significant periorbital allodynia that is not blocked by dural lidocaine (2%, 5 μl, 10-15 min) pretreatment. […] C. Comparing areas under the curves for A and B confirmed that cortical KCl, regardless of dural lidocaine, induces significant periorbital allodynia that is not replicated by dural application of KCl. D. Cortical KCl allodynia increases cortical cFos 90 min post-injection (n=3-4/group). Data are mean±SEM (n=8-11), one or two-way ANOVA, *p<0.05: **<0.01: ***p<0.001: dotted line-naïve.
FIG. 8A-B: MAGL inhibition alleviates cortical KCl induced periorbital allodynia in female rats. […] Data are expressed mean±SEM (n=8-12), two-way RMANOVA Bonferroni, *p<0.051 **p<0.01: ****p<0.0001.
FIG. 9A-B: ABHD6 inhibition alleviates cortical KCl induced periorbital allodynia in female rats. […] Data are expressed mean±SEM (n=8-12), two-way RMANOVA Bonferroni, *p<0.05: **p<0.01: ***p<0.001.
FIG. 10A-B: Dual MAGL/ABHD6 inhibition alleviates cortical KCl induced periorbital allodynia in female rats. […] Data are expressed mean±SEM (n=7-14), two-way RMANOVA, Bonferroni, *p<0.05: **p<0.01: ****p<0.0001.
(§1) FIG. 13A-B: MAGL inhibition and cannabinoid receptor selectivity. Injection of CB1R antagonist, rimonabant (1 mg/kg, IP) prior to KCl shifted onset of MJN110 (10 mg/kg, IP) by 30 min. CB2R antagonist, SR144528 (1 mg/kg, IP), injected prior to KCl blocked the anti-allodynic effect of MJN110. Data are expressed mean±SEM (n=9), one- and two-way ANOVA, *p<0.05, ***p<0.001, ****p<0.0001.
Data are expressed mean±SEM (n=8-12), two-way RMANOVA Bonferroni, *p<0.051 **p<0.01: ****p<0.0001.
Data are expressed mean±SEM (n=8-12), two-way RMANOVA Bonferroni, *p<0.05: **p<0.01: ***p<0.001.
Data are expressed mean+SEM (n=7-14), two-way RMANOVA, Bonferroni, *p<0.05: **p<0.01: ****p<0.0001.
as §1, with “Injection” for “FIG. 13A-B: MAGL inhibition and cannabinoid receptor selectivity. Injection”, “mean #SEM” for “mean±SEM”

CB2R [2] = biological target: T1, CB2R (Homo sapiens, UniProt P34972); conditions: cited from earlier work
CB2R [3] = biological target: T1, CB2R; conditions: cited from earlier work; remark: listed apart in the source
GPR55 = GPR55 (Homo sapiens, UniProt Q9Y2T6); conditions: cited from earlier work
migraine pain = conditions: preclinical, cited from earlier work

T1 sequence (P34972 whole entry): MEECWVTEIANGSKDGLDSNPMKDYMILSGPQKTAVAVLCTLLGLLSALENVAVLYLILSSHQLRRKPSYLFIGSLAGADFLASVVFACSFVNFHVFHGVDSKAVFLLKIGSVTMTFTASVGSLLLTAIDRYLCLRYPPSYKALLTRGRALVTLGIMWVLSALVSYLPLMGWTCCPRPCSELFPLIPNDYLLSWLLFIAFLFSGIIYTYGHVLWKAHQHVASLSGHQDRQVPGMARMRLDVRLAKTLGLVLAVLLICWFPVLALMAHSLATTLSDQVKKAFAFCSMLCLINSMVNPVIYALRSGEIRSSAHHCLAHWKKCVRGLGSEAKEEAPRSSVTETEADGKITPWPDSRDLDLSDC
GPR55, sequence (Q9Y2T6 whole entry, species assumed): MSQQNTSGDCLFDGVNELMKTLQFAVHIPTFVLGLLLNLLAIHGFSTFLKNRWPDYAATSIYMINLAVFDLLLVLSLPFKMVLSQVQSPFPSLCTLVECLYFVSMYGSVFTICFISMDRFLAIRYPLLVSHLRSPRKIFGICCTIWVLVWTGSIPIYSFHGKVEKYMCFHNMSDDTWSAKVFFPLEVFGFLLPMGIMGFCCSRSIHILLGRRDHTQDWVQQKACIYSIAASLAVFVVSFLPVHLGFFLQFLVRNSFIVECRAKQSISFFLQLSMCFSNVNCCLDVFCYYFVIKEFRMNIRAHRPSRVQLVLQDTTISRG

**Q.** Which “effect on the anti-allodynic effect of MJN110” value ([1]; SR144528 1 mg/kg IP prior to KCl, MJN110 10 mg/kg IP) does the source give for SR144528 here?
**A.** The value was “blocked”.

**Q.** With `CCCCC/C=C\C/C=C\C/C=C\C/C=C\CCCC(=O)OC(CO)CO` [2AG, 2-arachidonoylglycerol] as the compound, how does the Ki (CB2R [2]) read?
**A.** The Ki was 0.175 to 1.4 µM.

**Q.** And the EC50 (CB2R [3])?
**A.** Its EC50 is 0.004 µM.

**Q.** And the Emax (CB2R [3])?
**A.** Its Emax is 34%.

**Q.** What about the EC50 (GPR55) of the same compound?
**A.** Its EC50 is 0.618 µM.

**Q.** For `Cc1c(C(=O)NN2CCCCC2)nn(-c2ccc(Cl)cc2Cl)c1-c1ccc(Cl)cc1` [rimonabant], which “shift of onset of MJN110 effect” value ([1]; rimonabant 1 mg/kg IP prior to KCl, MJN110 10 mg/kg IP) is on record?
**A.** Its value is 30 min.

**Q.** What does the source list for `CCN(CC)CC(=O)Nc1c(C)cccc1C` [lidocaine]?
**A.** block of cortical KCl induced periorbital allodynia ([1]; dural lidocaine 2%, 5 μl, 10-15 min pretreatment, cortical KCl 0.5 μL, 1M): not blocked; effect on periorbital allodynia after dural KCl ([1]; lidocaine pretreatment, dural KCl 5 uL, 1M): no effect

**Q.** Which results are given for `O=C(N1CCCCC1c1ccccc1)n1cc(-c2ccc(-c3cccc(CO)c3)cc2)nn1` (centres unmarked) [KT182, (4-(3′-(hydroxymethyl)-[1,1′-biphenyl]-4-yl)-1H-1,2,3-triazol-1-yl)(2-phenylpiperidin-1-yl) methanone]?
**A.** reversal of periorbital allodynia ([1]; KT182 2 mg/kg IP after cortical KCl (0.5 μL)): reverses; prevention of periorbital allodynia ([1]; KT182 2 mg/kg IP before cortical KCl (0.5 μL)): prevents

**Q.** With `O=C(ON1C(=O)CCC1=O)N1CCN(C(c2ccc(Cl)cc2)c2ccc(Cl)cc2)CC1` [MJN110, 2,5-dioxopyrrolidin-1-yl 4-(bis(4-chlorophenyl)methyl)piperazine-1-carboxylate] as the compound, how does the “reversal of periorbital allodynia” value ([1]; MJN110 10 mg/kg IP after cortical KCl (0.5 μL)) read?
**A.** The value was “reverses”.

**Q.** And the “prevention of periorbital allodynia” value ([1]; MJN110 10 mg/kg IP before cortical KCl (0.5 μL))?
**A.** The value was “prevents”.

**Q.** What does the source list for `CCCCCc1cc(O)c2c(c1)OC(C)(C)[C@@H]1CCC(C)=C[C@@H]21` [THC]?
**A.** reduction of migraine pain (migraine pain; acute): effective; migraine-like pain (migraine pain; repeated exposure): increases
